In one assay the target is T1, PLK4 (Homo sapiens, UniProt O00444).
T1 sequence (O00444 1-970): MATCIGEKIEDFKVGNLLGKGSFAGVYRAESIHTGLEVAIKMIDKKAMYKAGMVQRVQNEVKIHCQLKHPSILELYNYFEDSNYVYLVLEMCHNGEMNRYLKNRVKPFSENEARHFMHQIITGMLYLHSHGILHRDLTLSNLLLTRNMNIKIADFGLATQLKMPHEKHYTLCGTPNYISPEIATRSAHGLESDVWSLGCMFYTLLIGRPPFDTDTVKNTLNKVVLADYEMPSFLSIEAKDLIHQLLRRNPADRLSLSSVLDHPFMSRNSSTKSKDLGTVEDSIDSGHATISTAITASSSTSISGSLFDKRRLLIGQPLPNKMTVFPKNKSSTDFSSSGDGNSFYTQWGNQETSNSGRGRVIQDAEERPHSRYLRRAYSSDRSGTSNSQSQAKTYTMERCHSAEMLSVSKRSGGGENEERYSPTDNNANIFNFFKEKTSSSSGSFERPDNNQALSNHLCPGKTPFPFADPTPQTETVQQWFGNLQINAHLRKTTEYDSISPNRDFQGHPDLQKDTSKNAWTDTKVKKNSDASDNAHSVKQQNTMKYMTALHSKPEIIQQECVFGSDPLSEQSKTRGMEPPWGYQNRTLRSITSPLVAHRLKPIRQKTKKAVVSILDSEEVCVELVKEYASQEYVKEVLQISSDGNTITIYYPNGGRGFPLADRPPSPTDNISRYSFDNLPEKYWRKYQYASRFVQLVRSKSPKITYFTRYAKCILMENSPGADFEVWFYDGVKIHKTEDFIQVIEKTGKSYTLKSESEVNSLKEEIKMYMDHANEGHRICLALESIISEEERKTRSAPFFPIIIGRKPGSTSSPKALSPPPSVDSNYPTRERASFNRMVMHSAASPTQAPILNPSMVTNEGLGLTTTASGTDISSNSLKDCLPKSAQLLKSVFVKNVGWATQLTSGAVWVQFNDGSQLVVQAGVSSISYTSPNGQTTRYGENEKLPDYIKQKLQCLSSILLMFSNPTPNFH
The experiment in a line: Activity (IC50) of the Table 1 compounds as PLK4 inhibitors. The format is biochemical. Conditions: Table 1, IC50 class.

In assay [1] the test system is caspase-3/7 activity in 'Sensitive' neuroblastoma and 'Not Sensitive' (RPE1, BT-12, BT-16) cell lines. The experiment in a line: Caspase activation assay. In kind it is cell-based. Conditions: 500 nM centrinone B, four cell cycle durations, compared with centrinone.

Some results are limits rather than exact numbers.

The text below walks through data of patent US11612604B2, “Methods of treating cancer with PLK4 inhibitors” (LUDWIG INSTITUTE FOR CANCER RESEARCH LTD, priority 2017, dated 2023).

The term IC50 denotes the midpoint of a concentration-inhibition curve. Read a high IC50 as a need for much substance. `COc1c(Nc2cc(C)[nH]n2)nc(Sc2ccc(NC(=O)C3CC3)cc2)nc1N1CCN(CCN(C)C)CC1`: on PLK4, the IC50 was below 100 nM.
Turning to `Cc1cc(Nc2nc(Sc3ccc(NC(=O)C4CC4)cc3)nc(N(C)C(C)C)c2C)n[nH]1`, the IC50 against PLK4 was below 100 nM.
Same read-out and setting: next, `COCCNc1nc(Sc2ccc(NC(=O)C3CC3)cc2)nc(Nc2cc(C)[nH]n2)c1C`: below 100 nM.
The molecule `Cc1cc(Nc2nc(Sc3ccc(NC(=O)C4CC4)cc3)nc(N3CCCCC3)c2C)n[nH]1` gave an IC50 against PLK4 below 100 nM.
Take `COc1c(Nc2cc(C)[nH]n2)nc(Sc2ccc(S(=O)(=O)C(C)(C)c3cnccn3)cc2)nc1N1CCN(CCN(C)C)CC1`: the IC50 at PLK4 was below 100 nM.
Same read-out and setting: under `COc1c(Nc2cc(C)[nH]n2)nc(Sc2ccc(S(=O)(=O)C(C)(C)c3ccncn3)cc2)nc1N1CCN(CCN(C)C)CC1` stands below 100 nM; under `COc1c(Nc2cc(C)[nH]n2)nc(Sc2ccc(S(=O)(=O)Cc3ccccc3)cc2)nc1N1CCN(Cc2ccncc2)CC1`, below 100 nM.
The same measure, in the same setting: next, `COc1c(Nc2cc(C)[nH]n2)nc(Sc2ccc(S(=O)(=O)Cc3cccc(C#N)c3)cc2)nc1N1CCN(CCN(C)C)CC1`: below 100 nM; `COc1ccccc1CS(=O)(=O)c1ccc(Sc2nc(Nc3cc(C)[nH]n3)c(OC)c(N3CCN(CCN(C)C)CC3)n2)cc1`: below 100 nM.
In turn, `COc1c(Nc2cc(C)[nH]n2)nc(Sc2ccc(S(=O)(=O)Cc3cccc(C)c3)cc2)nc1N1CCN(CCN(C)C)CC1` showed an IC50 against PLK4 below 100 nM.
Still for that read-out and setting: next, `COc1cccc(CS(=O)(=O)c2ccc(Sc3nc(Nc4cc(C)[nH]n4)c(OC)c(N4CCN(CCN(C)C)CC4)n3)cc2)c1`: below 100 nM; `CCOc1c(Nc2cc(C)[nH]n2)nc(Sc2ccc(NC(=O)C3CC3)cc2)nc1N1CCC(O)CC1`: below 100 nM.
The same measure, in the same setting: under `COc1c(Nc2cc(C)[nH]n2)nc(Sc2ccc(NC(C)=O)cc2)nc1N1CCC(O)CC1C` (stereo not shown) stands below 100 nM.
Same read-out and setting: next, `COc1c(Nc2cc(C)[nH]n2)nc(Sc2ccc(NC(C)=O)cc2)nc1N1CCN(CCN2CCOCC2)CC1`: below 100 nM.
Turning to `CC(=O)Nc1ccc(Sc2nc(Nc3cc(C)[nH]n3)c(C)c(N3CCN(CCN4CCCCC4)CC3)n2)cc1`, at PLK4, the IC50 was below 100 nM.
The same measure, in the same setting: under `CC(=O)Nc1ccc(Sc2nc(Nc3cc(C)[nH]n3)c(C)c(N3CCC(OCCN(C)C)CC3)n2)cc1` stands below 100 nM; under `CC(=O)Nc1ccc(Sc2nc(Nc3cc(C)[nH]n3)c(C)c(N3CCOC[C@@H]3C)n2)cc1`, below 100 nM.
Same read-out and setting: under `COc1c(Nc2cc(C)[nH]n2)nc(Sc2ccc(NC(C)=O)cc2)nc1N1CCN(CCN2CCCCC2)CC1` stands below 100 nM.
On the same count and under the same terms, next, `COc1c(Nc2cc(C)[nH]n2)nc(Sc2ccc(NC(C)=O)cc2)nc1N1CCN(CCCN(C)C)CC1`: below 100 nM; `COc1c(Nc2cc(C)[nH]n2)nc(Sc2ccc(NC(C)=O)cc2)nc1N1CCC(O)C1` (stereo not shown): below 100 nM; `CSc1nc(Nc2cc(C)[nH]n2)c(C)c(N2CCN(CCN(C)C)CC2)n1`: below 100 nM.
At PLK4, `COc1c(Nc2cc(C)[nH]n2)nc(Sc2ccc(NC(=O)C(F)(F)F)cc2)nc1N1CCN(CCN(C)C)CC1` registered an IC50 below 100 nM.
Still for that read-out and setting: next, `CNC(=O)Nc1ccc(Sc2nc(Nc3cc(C)[nH]n3)c(OC)c(N3CCN(CCN(C)C)CC3)n2)cc1`: below 100 nM; `CC(=O)Nc1ccc(Sc2nc(Nc3cc(C)[nH]n3)c(C)c(N3CCOC[C@H]3C)n2)cc1`: below 100 nM; `COc1c(Nc2cc(C)[nH]n2)nc(Sc2ccc(NC(C)=O)cc2)nc1N1CCN(CCNC(C)=O)CC1`: below 100 nM.
The same measure, in the same setting: under `CNCCN1CCN(c2nc(Sc3ccc(NC(C)=O)cc3)nc(Nc3cc(C)[nH]n3)c2OC)CC1` stands below 100 nM; under `COc1c(Nc2cc(C)[nH]n2)nc(Sc2ccc(S(=O)(=O)Cc3ccccc3F)cc2)nc1N1CCOCC1`, below 100 nM; under `COc1c(Nc2cc(C)[nH]n2)nc(Sc2ccc(S(=O)(=O)Cc3ccccc3[N+](=O)[O-])cc2)nc1N1CCN(CCN(C)C)CC1`, below 100 nM.
The same measure, in the same setting: under `COc1c(Nc2cc(C)[nH]n2)nc(Sc2ccc(NC(C)=O)cc2)nc1N1CCOC[C@@H]1C` stands below 100 nM.
The molecule `COc1c(Nc2cc(C)[nH]n2)nc(Sc2ccc(NC(C)=O)cc2)nc1N1CCOC[C@H]1C` came in with an IC50 on PLK4 below 100 nM.
With `COc1c(Nc2cc(C)[nH]n2)nc(Sc2ccc(NC(N)=O)cc2)nc1N1CCN(CCN(C)C)CC1`, on PLK4, the IC50 was below 100 nM.
Same read-out and setting: under `COc1c(Nc2cc(C)[nH]n2)nc(Sc2ccc(S(=O)(=O)Cc3cccc(C(F)(F)F)c3)cc2)nc1N1CCN(CCN(C)C)CC1` stands below 100 nM; under `COc1c(Nc2cc(C)[nH]n2)nc(Sc2ccc(S(=O)(=O)Cc3cccc(F)c3F)cc2)nc1N1CCN(CCN(C)C)CC1`, below 100 nM.
Still for that read-out and setting: under `CC(=O)Nc1ccc(Sc2nc(Cc3cc(C)[nH]n3)c(C)c(NC3CCN(C)CC3)n2)cc1` stands below 100 nM; under `CC(=O)Nc1ccc(Sc2nc(Nc3cc(C)[nH]n3)c(C)c(NC3CCNCC3)n2)cc1`, below 100 nM; under `COc1c(Nc2cc(C)[nH]n2)nc(Sc2ccc(NC(C)=O)cc2)nc1N1CCN(CC(=O)N(C)C)CC1`, below 100 nM.
Take `COc1c(Nc2cc(C)[nH]n2)nc(Sc2ccc(NC(C)=O)cc2)nc1NC1CCN(C)CC1`: the IC50 at PLK4 was below 100 nM.
On to `COc1c(Nc2cc(C)[nH]n2)nc(Sc2ccc(NC(C)=O)cc2)nc1N1CCC(C(=O)N(C)C)CC1`, for which the IC50 against PLK4 is below 100 nM.
For `COc1c(Nc2cc(C)[nH]n2)nc(Sc2ccc(S(=O)(=O)Cc3cccc([N+](=O)[O-])c3F)cc2F)nc1N1CCCCC1` [centrinone B], in assay [1], the caspase activity entry is on record as “Comparable levels of caspase activity”.
For `COc1c(Nc2cc(C)[nH]n2)nc(Sc2ccc(S(=O)(=O)Cc3cccc([N+](=O)[O-])c3F)cc2F)nc1N1CCCCC1` [drawing 376], the IC50 on PLK4 is below 100 nM.
